Data set [1] concerns dengue virus. Briefly: Initial screening of hit compounds for anti-dengue activity in tissue culture cells (Table S1). Type of data set: cell-based. The conditions noted are these: viral titer relative to vehicle, tissue culture cell lines (BHK-21 48 hpi, Fig. S1; Huh7, Fig. 2C, 3C, 4C). The procedure: For each query molecule, the top 500 compound hits obtained from the ROCS algorithm, as ranked by the Tanimoto combo score (see Data Set S1 in the supplemental material), were manually inspected for similar chemical and structural features. They were further prioritized by factors such as a lack of known side effects, commercial availability, and the intellectual property considerations that would be needed for worldwide, inexpensive use. Fourteen candidates were tested for their effects on dengue virus growth and toxicity in BHK-21 and Huh7 cells (see Table S1 and Fig. S1 in the supplemental material).
Supplementary file : TABLE S1 Summary of hits for lead compounds ARDP0006 and ST-148 screened for anti-dengue activity in tissue culture cells. Hit compounds were tested for anti-dengue activity and cell toxicity in tissue culture cell lines. Antiviral activity is summarized as follows: −, not antiviral, with titer greater than 50% of vehicle; +, weakly antiviral, with titer between 20 and 50% of vehicle; ++, moderately antiviral, with titer between 5 and 20% of vehicle; +++, highly antiviral, with titer less than 5% of vehicle. Toxicity at these doses is represented as follows: −, nontoxic, with cell viability greater than 80% of vehicle; +, mild toxicity, with cell viability between 60 and 80% of vehicle; +++, high toxicity, with cell viability less than 60% of vehicle. Data summarized here are depicted graphically in Fig. S1 and Fig. 2C, 3C, and [4]C. The Tanimoto combo score of each hit during initial ROCS screening is indicated; higher Tanimoto combo scores are indicative of increased chemical similarity. Download Table S1, PDF file, 0.04 MB.
Supplementary file : FIG S1 Initial screening of eliminated hit compounds for anti-dengue activity in tissue culture cells. BHK-21 cells were pretreated with the compounds at the indicated concentrations for 30 min, infected with dengue virus at an MOI of 0.1 PFU/cell for 1 h, and then posttreated with compound. At 48 hpi, cellular supernatant was collected and titered by plaque assay (purple). Cell viability in uninfected cells in the presence of compounds for 48 h was measured by WST assay (gray). Both viral titer and cell viability are normalized to their relative DMSO vehicle control, N = 2. Download FIG S1, PDF file, 0.06 MB.

The test system of data set [2] is DENV2. In words: Antiviral activity in DENV2-infected Huh7 cells, infectious virus in supernatant by plaque assay. The conditions noted are these: Dengue virus, Huh-7, DENV2-infected Huh7 cells; for IC50: single infectious cycle, plaque assay at 24 hpi, read-out: IC50 of viral inhibition (infectious extracellular virus). Type of data set: cell-based, dengue virus. As for the experimental part:
FIG 2 Pyrimethamine inhibits dengue virus and NS2B/3 proteinase cleavage like ARDP0006. (A) Chemical structures and (B) ROCS overlay of ARDP0006 and pyrimethamine. […] Infectious virus in cell supernatant was quantified by plaque assay at 24 hpi (left y axis, black or red). Cell viability was measured at the same pyrimethamine doses 24 h posttreatment by WST-1 assay (right y axis, gray). Viral titer and cell viability were normalized to DMSO-treated samples. (D) Splenic titers of DENV2-infected AGB6 mice at 4 days postinfection. Mice were infected with 1 × 10^6 PFU DENV2 and treated twice daily with 20 mg/kg pyrimethamine (n = 9) or a vehicle control (n = 10). Data were analyzed by two-tailed unpaired t test. (E) Cleavage kinetics of NS2B/3/4A in the presence of 100 μM pyrimethamine. NS2B/3/4A protein was expressed in vitro and radiolabeled with [^35S]methionine, followed by treatment with 100 μM pyrimethamine or DMSO. Reaction samples were obtained over a 45-min time course, separated by SDS-PAGE, and the fraction of uncleaved proteinase precursor remaining was determined as described previously ([23]). Data from three replicates were fit using single-phase exponential decay functions, and P value was determined by comparing the rate constant, K, of the models using the extra sum-of-squares F test.
Dengue plaque assays were carried out on BHK-21 cells in 24-well plates. Cells were infected with 10-fold serial dilutions of virus, which were allowed to adsorb for at least 1 h at 37°C, and overlaid with standard cell culture medium plus 0.37% (w/vol) sodium bicarbonate and 0.8% (w/vol) Aquacide II (Millipore Calbiochem). After 7 days of incubation at 37°C, 5% CO2, cells were fixed with 5% (final) formaldehyde and stained with crystal violet for plaque enumeration.
Between 4 × 10^4 and 1 × 10^5 Huh7 cells per well were seeded into 24-well plates 1 day prior to infection. Compounds were diluted to 100× final concentration in DMSO and then further diluted 1:100 into appropriate cell culture. Unless otherwise indicated, tested compounds were present for 1 h pretreatment and readministered for posttreatment following infection. […] Media and drugs were removed from cells for infection at a multiplicity of infection (MOI) of 0.1 or 0.5 in 200 μl cold medium per well. After 1 h at 37°C, virus inoculum was removed by aspiration and replaced with medium plus compound or control. After 24-h total infection, infectious virus was quantified by plaque assay. Antiviral IC50 dose-response curves were fitted in GraphPad Prism 8 using the “[inhibitor] versus response, variable slope” function with a constraint “bottom > 0.” IC90 values are defined as the dose at which “y = (span × 0.1) + bottom.”

Data set [3] deals with DENV2. Briefly: DENV2-infected AGB6 mouse model (splenic titer, survival). Type of data set: in vivo, AGB6 mice. Particulars: for Splenic titer of dengue virus: AGB6 mice, 20 mg/kg pyrimethamine twice daily, oral gavage, 4 days postinfection, 20 mg/kg.
The conditions of data set [4]: ref PubChem database, cited from earlier work; for LD50: single dose.
Another data set concerns the target T1, NS2B/3/4A (Dengue virus type 2, UniProt P29990).
T1 construct: NS2B/3/4A protein was expressed in vitro and radiolabeled with [^35S]methionine; made in house; host or cells: rabbit reticulocyte lysate (TNT coupled T7; Promega), cell-free in vitro translation
In words: In vitro translation-based proteinase cleavage assay of NS2B/3/4A precursor. Type of data set: biochemical. The conditions noted are these: 100 μM pyrimethamine vs DMSO, 45-min time course, translation extracts. As for the experimental part: FIG 2 Pyrimethamine inhibits dengue virus and NS2B/3 proteinase cleavage like ARDP0006. (A) Chemical structures and (B) ROCS overlay of ARDP0006 and pyrimethamine. […] Compounds were added 1 h prior to infection, removed, and then readministered after removal of viral inoculum. Infectious virus in cell supernatant was quantified by plaque assay at 24 hpi (left y axis, black or red). Cell viability was measured at the same pyrimethamine doses 24 h posttreatment by WST-1 assay (right y axis, gray). Viral titer and cell viability were normalized to DMSO-treated samples. (D) Splenic titers of DENV2-infected AGB6 mice at 4 days postinfection. Mice were infected with 1 × 10^6 PFU DENV2 and treated twice daily with 20 mg/kg pyrimethamine (n = 9) or a vehicle control (n = 10). Data were analyzed by two-tailed unpaired t test. […] Reaction samples were obtained over a 45-min time course, separated by SDS-PAGE, and the fraction of uncleaved proteinase precursor remaining was determined as described previously ([23]). Data from three replicates were fit using single-phase exponential decay functions, and P value was determined by comparing the rate constant, K, of the models using the extra sum-of-squares F test. […]
Proteinase cleavage assays were performed as previously described ([23]). […] Protein quantification was performed using ImageQuant TL 8.1 software (GE Healthcare Life Sciences).

Data set [5] deals with dengue virus. In words: Extracellular and intracellular virus quantification in Huh7 cells. The conditions noted are these: IC90 dose (spautin-1 2.4 μM, vandetanib 3.6 μM), Huh7, 24 hpi. Type of data set: cell-based. As for the experimental part:
FIG 5 Vandetanib and spautin-1 inhibit dengue maturation and egress in a VPS34-independent manner. […] Cells were pretreated for 1 h, infected for 1 h at an MOI of 0.5 PFU/cell, and posttreated for an additional 23 h. N = 4, one-way ANOVA with Dunnett’s multiple-comparison test. ns, not significant (P > 0.05); **, P < 0.01; ****, P < 0.0001. (C) Huh7 cells transfected with a luciferase-expressing RNA replicon were treated with 3 μM vandetanib (orange) or 1% DMSO vehicle control (black) for 1 h prior to transfection and up to 52 h posttransfection. Luciferase intensity was quantified as a measure of viral protein abundance. Luciferase intensity was shown as relative light units (RLU). The use of an RNA replicon that is directly transfected into cells reflects only translation and RNA replication steps of viral infection, not viral packaging or cell exit. N = 4, two-way ANOVA with Sikak’s multiple-comparison test. […] (D) VPS34 was not required for spautin-1 or vandetanib anti-dengue activity. Wild-type and VPS34 knockout Huh7 cells were treated with 5 μM spautin-1, 5 μM vandetanib, or DMSO. Cells were pretreated, infected at an MOI of 0.5, and posttreated as described above for panels A and B. At 24 hpi, cellular supernatant was collected and titered by plaque assay. N ≥ 3. One-way ANOVA with Dunnett’s multiple-comparison test; *, P < 0.05; **, P < 0.01; ***, P < 0.001; ****, P < 0.0001.
After 1 h, virus inoculum was aspirated and replaced with medium containing compounds or 1% DMSO. After 24-h total infection, extracellular virus was collected in cellular supernatant and quantified by plaque assay. To collect intracellular virus, cells were washed with PBS, incubated for 3 min at 4°C with high-salt buffer (1 M NaCl, 50 mM sodium bicarbonate [pH 9.5]) to detach cell-associated extracellular virus ([63]), washed twice with PBS, detached with 0.25% trypsin-EDTA, and isolated by centrifugation (500 × g, 5 min, 4°C). Infected cell pellets were resuspended in 750 μl cell culture medium, lysed by repeated freeze/thaw in liquid nitrogen followed by 37°C water bath. Debris was removed by centrifugation (3,200 × g, 5 min, 4°C), and infectious intracellular virus was quantified by BHK-21 plaque assay.

Data set [6] deals with dengue virus. In words: Antiviral activity in VPS34 knockout Huh7 cells. Type of data set: cell-based. Particulars: 5 μM compound, MOI 0.5, 24 hpi. The procedure:
FIG 5 Vandetanib and spautin-1 inhibit dengue maturation and egress in a VPS34-independent manner. […] Cells were pretreated for 1 h, infected for 1 h at an MOI of 0.5 PFU/cell, and posttreated for an additional 23 h. N = 4, one-way ANOVA with Dunnett’s multiple-comparison test. ns, not significant (P > 0.05); **, P < 0.01; ****, P < 0.0001. (C) Huh7 cells transfected with a luciferase-expressing RNA replicon were treated with 3 μM vandetanib (orange) or 1% DMSO vehicle control (black) for 1 h prior to transfection and up to 52 h posttransfection. Luciferase intensity was quantified as a measure of viral protein abundance. Luciferase intensity was shown as relative light units (RLU). The use of an RNA replicon that is directly transfected into cells reflects only translation and RNA replication steps of viral infection, not viral packaging or cell exit. N = 4, two-way ANOVA with Sikak’s multiple-comparison test. […] (D) VPS34 was not required for spautin-1 or vandetanib anti-dengue activity. Wild-type and VPS34 knockout Huh7 cells were treated with 5 μM spautin-1, 5 μM vandetanib, or DMSO. Cells were pretreated, infected at an MOI of 0.5, and posttreated as described above for panels A and B. At 24 hpi, cellular supernatant was collected and titered by plaque assay. N ≥ 3. One-way ANOVA with Dunnett’s multiple-comparison test; *, P < 0.05; **, P < 0.01; ***, P < 0.001; ****, P < 0.0001. […]

Entries after “also recorded” stand apart in the source; their conditions may differ. Where two headings read alike, the source gives them in different places.

T1 sequence (P29990 1476-2093): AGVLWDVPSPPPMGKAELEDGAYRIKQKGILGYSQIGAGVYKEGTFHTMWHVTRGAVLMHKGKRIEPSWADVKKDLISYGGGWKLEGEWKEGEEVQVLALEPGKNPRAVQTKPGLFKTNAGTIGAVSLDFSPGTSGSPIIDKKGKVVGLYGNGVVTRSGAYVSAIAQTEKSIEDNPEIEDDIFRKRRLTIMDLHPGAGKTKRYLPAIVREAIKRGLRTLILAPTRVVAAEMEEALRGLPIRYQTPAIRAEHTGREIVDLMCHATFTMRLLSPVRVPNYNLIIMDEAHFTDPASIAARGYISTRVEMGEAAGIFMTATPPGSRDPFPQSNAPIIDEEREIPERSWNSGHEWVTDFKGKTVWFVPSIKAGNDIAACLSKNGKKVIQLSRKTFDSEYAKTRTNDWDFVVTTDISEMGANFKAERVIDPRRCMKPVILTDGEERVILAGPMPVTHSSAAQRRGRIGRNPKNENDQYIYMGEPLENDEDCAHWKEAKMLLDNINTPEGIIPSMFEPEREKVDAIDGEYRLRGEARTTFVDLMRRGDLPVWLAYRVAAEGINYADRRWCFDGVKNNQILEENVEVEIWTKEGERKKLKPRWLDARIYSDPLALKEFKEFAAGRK
T1 sequence (P29990 1346-1475): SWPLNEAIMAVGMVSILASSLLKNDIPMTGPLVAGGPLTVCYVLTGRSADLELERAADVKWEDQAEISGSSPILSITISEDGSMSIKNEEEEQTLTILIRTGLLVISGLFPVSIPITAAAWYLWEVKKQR

What is called IC50 is the concentration needed to halve the response being measured. In general, LD50 refers to the dose at which mortality reaches 50%. Consider `CCc1nc(N)nc(N)c1-c1ccc(Cl)cc1` [Pyrimethamine, pyrimethamine], for which the Antiviral result in the data set on dengue virus [1] is “+++ (highly antiviral, with titer less than 5% of vehicle)”. Also, the 50% inhibitory concentration (IC50) with DENV2 [2] came out at 1.2 µM. Also, the “Splenic titer of dengue virus” value in the data set on DENV2 [3] is “significantly reduced viral splenic burden”; with DENV2 [3] (listed as pyrimethamine), “reduced viral loads; also recorded: significant reduction in splenic titer”. The “Mortality on sustained treatment (survival experiments)” value in the data set on DENV2 [3] (infected AGB6 mice, sustained pyrimethamine treatment) is “caused marked mortality”. Besides, the LD50 in data set [4] (IP) was 74 mg/kg; in data set [4] (Oral), 92 mg/kg. Also, in data set [4] (healthy mice), the “Acute toxicity in words (Table S2)” value is on record as “well tolerated”. For the same compound, the “Cleavage kinetics of NS2B/3/4A precursor” value was “inhibited intramolecular NS2B/3 cleavage” at NS2B/3/4A and “significantly slowed dengue virus NS2B/3 cleavage; also recorded: slowing proteinase cleavage in translation extracts” on NS2B/3/4A (listed as pyrimethamine).
Usually IC90 stands for the concentration needed for an effect of 90%. Higher therefore signals weaker potency. Turning to `Fc1ccc(CNc2ncnc3ccc(F)cc23)cc1` [spautin-1], in the data set on dengue virus [5], the Extracellular viral titer result is on record as “significantly reduced; also recorded: reduced extracellular virus” and the Infectious intracellular virus entry is on record as “unchanged; also recorded: abundant intracellular virus”. The “Antiviral activity in VPS34 knockout cells” value in the data set on dengue virus [6] is “retained significant antiviral activity; also recorded: retained their ability to limit dengue virus egress”. In the data set on DENV2 [2] (from dose-response curve fit, 24 hpi), this compound had an IC90 of 2.4 µM. Also, in the data set with DENV2 [2], the half-inhibitory concentration (IC50) was 1.1 µM.
